Test results taken from ChEMBL document CHEMBL1201862, “PubChem BioAssay data set” (2004).
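Step 1: Grow cells in 96-well plates. Step 2: Expose to compound for 48 hours at 5 concentrations. Step 3: Interpolate endpoints linearly; if unreached, use highest concentration. GI50 = concentration required for 50% inhibition of growth.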 Activity calls are given as the source filed them. Rule as the data show it: active = GI50 up to about 1.1 µM and inactive = higher.

Experiments:
Assay in all cases: inhibition of tumour cell growth, NCI panel, 48 h
K562 = test system: K562
NCI-H522 = test system: NCI-H522
SF-539 = test system: SF-539
HCC 2998 = test system: HCC 2998
SW-620 = test system: SW-620
OVCAR-4 = test system: OVCAR-4
UO-31 = test system: UO-31
HCT-15 = test system: HCT-15
SF-295 = test system: SF-295
RPMI-8226 = test system: RPMI-8226
UACC-62 = test system: UACC-62
Hs-578T = test system: Hs-578T
SK-MEL-5 = test system: SK-MEL-5
KM12 = test system: KM12
CAKI-1 = test system: CAKI-1
NCI/ADR-RES = test system: NCI/ADR-RES
IGROV-1 = test system: IGROV-1
NCI-H460 = test system: NCI-H460
A498 = test system: A498
HOP-92 = test system: HOP-92

| SMILES | GI50 (K562) | GI50 (NCI-H522) | GI50 (SF-539) | GI50 (HCC 2998) | GI50 (SW-620) | GI50 (OVCAR-4) | GI50 (UO-31) | GI50 (HCT-15) [µM] | GI50 (SF-295) | GI50 (RPMI-8226) | GI50 (UACC-62) | GI50 (Hs-578T) | GI50 (SK-MEL-5) | GI50 (KM12) | GI50 (CAKI-1) | GI50 (NCI/ADR-RES) | GI50 (IGROV-1) | GI50 (NCI-H460) | GI50 (A498) | GI50 (HOP-92) |
| --- | --- | --- | --- | --- | --- | --- | --- | --- | --- | --- | --- | --- | --- | --- | --- | --- | --- | --- | --- | --- |
| O=C1NCCCNCCCNCCCNC(=O)c2cccc1n2 | > 100 µM (inactive) | > 100 µM (inactive) | > 100 µM (inactive) | > 100 µM (inactive) | > 100 µM (inactive) | > 100 µM (inactive) | > 100 µM (inactive) | > 100 | > 100 µM (inactive) | > 100 µM (inactive) | > 100 µM (inactive) | > 100 µM (inactive) | > 100 µM (inactive) | > 100 µM (inactive) | > 100 µM (inactive) | > 100 µM (inactive) | > 100 µM (inactive) | > 100 µM (inactive) | – | – |
| Cn1c(=O)c2[nH]c(C3CC(=O)CC(c4nc5c([nH]4)c(=O)n(C)c(=O)n5C)N3)nc2n(C)c1=O (stereo not drawn) | 72.8 µM (inactive) | > 100 µM (inactive) | > 100 µM (inactive) | – | > 100 µM (inactive) | > 100 µM (inactive) | > 100 µM (inactive) | > 100 | > 100 µM (inactive) | > 100 µM (inactive) | > 100 µM (inactive) | > 100 µM (inactive) | > 100 µM (inactive) | > 100 µM (inactive) | > 100 µM (inactive) | > 100 µM (inactive) | > 100 µM (inactive) | > 100 µM (inactive) | > 100 µM (inactive) | – |
| CN(NC(=O)/C(=C/C=C/c1ccccc1)NC(=O)c1ccccc1)C1=C(Cl)C(=O)[N+](c2ccccc2)=CC1 | 19.9 µM (inactive) | 23.3 µM (inactive) | 19.7 µM (inactive) | – | 16.4 µM (inactive) | 22.4 µM (inactive) | 26.5 µM (inactive) | 24.2 | 35 µM (inactive) | 23.9 µM (inactive) | – | 42.7 µM (inactive) | 14.4 µM (inactive) | 16.7 µM (inactive) | 35.4 µM (inactive) | 20.7 µM (inactive) | 12.1 µM (inactive) | 37.6 µM (inactive) | 39.4 µM (inactive) | 20.5 µM (inactive) |
| COc1cc2nc(-c3cccs3)nc(N3CCN(c4ccccc4)CC3)c2cc1OC | > 100 µM (inactive) | > 100 µM (inactive) | > 100 µM (inactive) | – | > 100 µM (inactive) | > 100 µM (inactive) | > 100 µM (inactive) | > 100 | > 100 µM (inactive) | > 100 µM (inactive) | > 100 µM (inactive) | > 100 µM (inactive) | > 100 µM (inactive) | > 100 µM (inactive) | > 100 µM (inactive) | > 100 µM (inactive) | > 100 µM (inactive) | > 100 µM (inactive) | > 100 µM (inactive) | > 100 µM (inactive) |
| CN(CC#N)C1CCCC[C@H]1O (stereo partly drawn) | > 100 µM (inactive) | > 100 µM (inactive) | > 100 µM (inactive) | > 100 µM (inactive) | > 90.4 µM (inactive) | > 100 µM (inactive) | > 100 µM (inactive) | > 100 | > 100 µM (inactive) | > 100 µM (inactive) | > 100 µM (inactive) | – | > 100 µM (inactive) | > 100 µM (inactive) | > 100 µM (inactive) | – | > 100 µM (inactive) | > 100 µM (inactive) | > 100 µM (inactive) | > 100 µM (inactive) |
| CC(C)N(C(=O)c1cccc(C(=O)N(C(C)C)C(C)C)c1)C(C)C | > 100 µM (inactive) | > 100 µM (inactive) | > 100 µM (inactive) | > 100 µM (inactive) | 12.8 µM (inactive) | > 100 µM (inactive) | > 100 µM (inactive) | > 100 | > 100 µM (inactive) | 24.9 µM (inactive) | > 100 µM (inactive) | – | > 100 µM (inactive) | > 100 µM (inactive) | > 100 µM (inactive) | – | > 100 µM (inactive) | > 100 µM (inactive) | > 100 µM (inactive) | > 100 µM (inactive) |
| COc1cc2c3cc1Oc1cc(ccc1O)C[C@@H]1c4c(cc(OC)c(O)c4Oc4ccc(cc4)C[C@@H]3N(C)CC2)CC[N+]1(C)C | 42 µM (inactive) | 24.9 µM (inactive) | 15.1 µM (inactive) | – | 27.2 µM (inactive) | 73.8 µM (inactive) | > 100 µM (inactive) | 70.1 | 19.9 µM (inactive) | 79.6 µM (inactive) | > 100 µM (inactive) | 13.5 µM (inactive) | > 100 µM (inactive) | 27.1 µM (inactive) | > 100 µM (inactive) | > 100 µM (inactive) | > 100 µM (inactive) | 33.3 µM (inactive) | 81.7 µM (inactive) | 11.6 µM (inactive) |
